Experimental findings from PMC11587536 (Biochemistry, 2024) are described below.

The experiment deals with MoLOX (Pyricularia oryzae, UniProt G4NAP4).

Structures are written as SMILES.

Sequence of MoLOX (G4NAP4 17-619 limits assumed): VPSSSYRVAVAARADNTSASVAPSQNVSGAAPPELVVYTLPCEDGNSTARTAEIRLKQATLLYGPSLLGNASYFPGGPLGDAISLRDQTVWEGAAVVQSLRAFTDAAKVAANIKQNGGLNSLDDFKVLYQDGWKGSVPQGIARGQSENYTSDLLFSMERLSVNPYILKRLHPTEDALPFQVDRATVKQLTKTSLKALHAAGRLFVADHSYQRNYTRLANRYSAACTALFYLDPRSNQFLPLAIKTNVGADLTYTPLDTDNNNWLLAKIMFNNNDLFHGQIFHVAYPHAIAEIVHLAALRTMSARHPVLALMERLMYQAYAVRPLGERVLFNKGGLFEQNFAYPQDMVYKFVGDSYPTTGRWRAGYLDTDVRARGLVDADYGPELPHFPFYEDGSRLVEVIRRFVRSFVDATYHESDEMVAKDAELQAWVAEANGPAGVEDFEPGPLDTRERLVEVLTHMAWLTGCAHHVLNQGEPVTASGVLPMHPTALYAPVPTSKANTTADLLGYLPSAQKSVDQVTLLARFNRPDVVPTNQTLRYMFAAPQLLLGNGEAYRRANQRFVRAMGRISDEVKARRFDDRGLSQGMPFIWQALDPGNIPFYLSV

As to `CC/C=C\C/C=C\C/C=C\CCCCCCCC(=O)O` [αLA, alpha linolenic], the “O2 electrode, steady-state kinetics” value is reported as “WT MoLOX reacts nearly twice as fast with αLA as with LA”.
